Measured values taken from the NIST ThermoML archive (doi:10.1016/j.jct.2019.01.007).
Values joined by “and” are separate entries in the source; they are usually repeats but may differ in a detail not shown here. Identical values can stand only once. ± gives the expanded uncertainty stated by the source.

Conditions: Liquid

CCCCCCCCCCCCCCCCCC(=O)OC [methyl octadecanoate]
Conditions | vapor or sublimation pressure
323.15 K | 1.964e-05 ± 1.7e-06 kPa
325.63 K | 2.609e-05 ± 1.7e-06 kPa
329.6 K | 4.071e-05 ± 1.7e-06 kPa
330.56 K | 4.58e-05 ± 1.7e-06 kPa
332.04 K | 5.362e-05 ± 1.8e-06 kPa
333.07 K | 6.007e-05 ± 1.8e-06 kPa
334.55 K | 6.999e-05 ± 1.8e-06 kPa
335.51 K | 7.764e-05 ± 1.8e-06 kPa
336.99 K | 9.04e-05 ± 1.9e-06 kPa
338.02 K | 0.0001008 ± 1.9e-06 kPa
339.5 K | 0.0001184 ± 2e-06 kPa
340.47 K | 0.0001287 ± 2e-06 kPa
340.98 K | 0.0001351 ± 2.1e-06 kPa
341.1 K | 0.0001377 ± 2.1e-06 kPa
341.96 K | 0.0001499 ± 2.1e-06 kPa
342.97 K | 0.0001648 ± 2.3e-06 kPa
343.46 K | 0.0001744 ± 2.4e-06 kPa
343.47 K | 0.0001739 ± 2.4e-06 kPa
343.6 K | 0.0001774 ± 2.4e-06 kPa
344.44 K | 0.0001914 ± 2.6e-06 kPa
345.44 K | 0.0002122 ± 2.8e-06 kPa
345.93 K | 0.0002228 ± 3e-06 kPa and 0.0002233 ± 3e-06 kPa
348.42 K | 0.0002848 ± 3.7e-06 kPa
348.57 K | 0.0002879 ± 3.8e-06 kPa
350.9 K | 0.0003613 ± 4.7e-06 kPa
355.89 K | 0.0005743 ± 7.3e-06 kPa
358.52 K | 0.0007236 ± 9.2e-06 kPa
360.89 K | 0.0008965 ± 1.1e-05 kPa
363.49 K | 0.001127 ± 1.4e-05 kPa
363.98 K | 0.00118 ± 1.5e-05 kPa
365.92 K | 0.001386 ± 1.7e-05 kPa
366.47 K | 0.00146 ± 1.8e-05 kPa
368.46 K | 0.001721 ± 2.1e-05 kPa
368.97 K | 0.001804 ± 2.3e-05 kPa
370.93 K | 0.002113 ± 2.6e-05 kPa
371.46 K | 0.002216 ± 2.8e-05 kPa
373.44 K | 0.002588 ± 3.2e-05 kPa
373.95 K | 0.00271 ± 3.4e-05 kPa
373.96 K | 0.002713 ± 3.4e-05 kPa
375.45 K | 0.003046 ± 3.8e-05 kPa
375.93 K | 0.003163 ± 3.9e-05 kPa
376.44 K | 0.003286 ± 4.1e-05 kPa
377.44 K | 0.003573 ± 4.4e-05 kPa
380.44 K | 0.004514 ± 5.6e-05 kPa and 0.0045 ± 5.6e-05 kPa
381.43 K | 0.004848 ± 6e-05 kPa
381.44 K | 0.004888 ± 6.1e-05 kPa and 0.0049 ± 6.1e-05 kPa
382.43 K | 0.005241 ± 6.5e-05 kPa
383.93 K | 0.005905 ± 7.3e-05 kPa
383.94 K | 0.0059 ± 7.3e-05 kPa
385.43 K | 0.006597 ± 8.2e-05 kPa and 0.006574 ± 8.1e-05 kPa
386.43 K | 0.007091 ± 8.8e-05 kPa and 0.007085 ± 8.8e-05 kPa
388.93 K | 0.00852 ± 0.00011 kPa
391.41 K | 0.01021 ± 0.00013 kPa
393.92 K | 0.0122 ± 0.0002 kPa
396.39 K | 0.01443 ± 0.00021 kPa
398.9 K | 0.01726 ± 0.00023 kPa
401.38 K | 0.0202 ± 0.00027 kPa
403.89 K | 0.02406 ± 0.00032 kPa
406.38 K | 0.0282 ± 0.00037 kPa
408.88 K | 0.03336 ± 0.00043 kPa

Transpiration method
Conditions | vapor or sublimation pressure [kPa]
369.05 K | 0.00176 ± 0.00036
371.15 K | 0.00202 ± 0.00041
375.1 K | 0.0027 ± 0.00055
377.05 K | 0.00323 ± 0.00066
380.05 K | 0.00389 ± 0.00079
383.15 K | 0.00494 ± 0.001
387.15 K | 0.00636 ± 0.0013
390.35 K | 0.00731 ± 0.0015
393.15 K | 0.00901 ± 0.0018
397.5 K | 0.013 ± 0.0026
399.45 K | 0.0149 ± 0.003
400.35 K | 0.0159 ± 0.0032
401.35 K | 0.0166 ± 0.0034
405.2 K | 0.0225 ± 0.0046
405.6 K | 0.0231 ± 0.0047
408.4 K | 0.0279 ± 0.0057
410.25 K | 0.0322 ± 0.0066
411.15 K | 0.0339 ± 0.0069
412.3 K | 0.036 ± 0.0073
415.2 K | 0.0433 ± 0.0088
416.35 K | 0.0424 ± 0.0086
419.25 K | 0.052 ± 0.011
420.15 K | 0.0563 ± 0.011
423.1 K | 0.0664 ± 0.013
425.15 K | 0.0804 ± 0.016
